Here are results for three compounds from ChEMBL document CHEMBL1150960, “Isolation, structure determination, and biological activity of dolastatin 12 and lyngbyastatin 1 from Lyngbya majuscula/Schizothrix calcicola cyanobacterial assemblages” (J Nat Prod, 1998).

Data set [1] concerns KB. Briefly: Cytotoxicity against human KB cells. The class given is functional.
Data set [2] can be described thus: Antitumor activity against mouse mammary 16/C cells xenografted C3H mouse at 6.4 mg/kg, iv administered in QD 1-8 schedule. The class given is functional.
The subject of data set [3] is MC-38. Kind of data set: Antitumor activity against mouse Colon 38 cells xenografted BDF mouse at 10.3 mg/kg, iv administered in QD 3-11 schedule. The class given is functional.
For data set [4], the system named is Mus musculus. Kind of data set: Toxicity in mouse mammary 16/C cells xenografted C3H mouse assessed as body weight loss at nadir at 6.4 mg/kg, iv administered in QD 1-8 schedule. It counts as organism-based. Also noted: dose 6.4 mg/kg, route intravenous. The following applies: in vivo.
The nature of data set [5]: Cytotoxicity against CFU-GM cells assessed as zone units at 2 ug/disk by Corbett soft agar disk diffusion assay. The class given is functional.
Data set [6] relates to A10. Briefly: Inhibition of cytokinesis in rat A10 cells at 0.01 to 2 ug/ml. It counts as functional, cell-based.
Data set [7] concerns L1210. Kind of data set: Cytotoxicity against mouse L1210 cells assessed as zone units at 2 ug/disk by Corbett soft agar disk diffusion assay. It counts as functional.
Data set [8] can be described thus: Cytotoxicity against human H116 cells assessed as zone units at 2 ug/disk by Corbett soft agar disk diffusion assay. It counts as functional.
Data set [9] deals with MC-38. Kind of data set: Cytotoxicity against mouse Colon 38 cells assessed as zone units at 2 ug/disk by Corbett soft agar disk diffusion assay. It counts as functional.
Data set [10] relates to Mus musculus. Kind of data set: Toxicity in mouse mammary 16/C cells xenografted C3H mouse assessed as body weight loss at nadir at 3.2 mg/kg, iv administered in d 1,2 schedule. The arrangement: dose 3.2 mg/kg, route intravenous. The class given is organism-based. Particulars: in vivo.
For data set [11], the system named is Mus musculus. Briefly: Toxicity in mouse mammary 16/C cells xenografted C3H mouse assessed as mortality at 6.4 mg/kg, iv administered in QD 1-8 schedule. The class given is organism-based. Also noted: dose 6.4 mg/kg, route intravenous. Particulars: in vivo.
For data set [12], the system named is Mus musculus. Kind of data set: Toxicity in mouse Colon 38 cells xenografted BDF mouse assessed as body weight loss at nadir at 10.3 mg/kg, iv administered in QD 3-11 schedule. It counts as organism-based, MC-38. The arrangement: dose 10.3 mg/kg, route intravenous. Particulars: in vivo.
Data set [13] can be described thus: Cytotoxicity against mouse mammary 17/Adr cells assessed as zone units at 2 ug/disk by Corbett soft agar disk diffusion assay. The class given is functional.
Data set [14] has as its system LoVo. Kind of data set: Cytotoxicity against human LoVo cells. It counts as functional.
For data set [15], the system named is MC-38. Briefly: Antitumor activity against mouse Colon 38 cells xenografted BDF mouse at 7.5 mg/kg, iv administered in QD 3-11 schedule. The class given is functional.
Data set [16] relates to A10. Kind of data set: Effect on morphology in rat A10 cells assessed as formation of binuclear cells at 0.01 to 2 ug/ml. The class given is functional, cell-based.
Data set [17] deals with Mus musculus. Kind of data set: Necrosis in iv dosed mouse assessed as inflamed, bloody, upper GI tract with pancreatic damage and hemorrhage in lungs. Particulars: in vivo. It counts as organism-based, Gastrointestinal tract.
Data set [18] concerns A10. Kind of data set: Induction of apoptosis in rat A10 cells assessed as apoptotic nuclei at 2 ug/ml. It counts as functional, cell-based.
Data set [19] concerns Mus musculus. Kind of data set: Toxicity in mouse Colon 38 cells xenografted BDF mouse assessed as body weight loss at nadir at 7.5 mg/kg, iv administered in QD 3-11 schedule. The class given is organism-based, MC-38. Particulars: in vivo. The arrangement: dose 7.5 mg/kg, route intravenous.
In data set [20] the test system is Mus musculus. Kind of data set: Toxicity in mouse mammary 16/C cells xenografted C3H mouse assessed as mortality at 3.2 mg/kg, iv administered in d 1,2 schedule. The class given is organism-based. Also noted: dose 3.2 mg/kg, route intravenous. The following applies: in vivo.
Data set [21] has as its system A10. Kind of data set: Effect on morphology in rat A10 cells assessed as microtubule loss at 0.01 to 2 ug/ml after 24 hrs by […]. The class given is functional, cell-based.
A short description of data set [22]: Antitumor activity against mouse mammary 16/C cells xenografted C3H mouse at 3.2 mg/kg, iv administered in d 1,2 schedule. The class given is functional.
Data set [23] concerns MC-38. Briefly: Cytotoxicity against mouse Colon 38 cells assessed as zone units at 12 ug/disk by Corbett soft agar disk diffusion assay. The class given is functional.
Data set [24] can be described thus: Cytotoxicity against CFU-GM cells assessed as zone units at 12 ug/disk by Corbett soft agar disk diffusion assay. The class given is functional.
Data set [25] deals with L1210. Kind of data set: Cytotoxicity against mouse L1210 cells assessed as zone units at 12 ug/disk by Corbett soft agar disk diffusion assay. The class given is functional.
The nature of data set [26]: Cytotoxicity against human H116 cells assessed as zone units at 12 ug/disk by Corbett soft agar disk diffusion assay. It counts as functional.
Data set [27] deals with A10. Briefly: Effect on morphology in rat A10 cells assessed as loss of cellular microfilament network at 0.2 ug/ml after 24 hrs by rhodamine-phalloidin staining. It counts as functional, cell-based.
The subject of data set [28] is A10. Kind of data set: Effect on morphology in rat A10 cells assessed as microtubule loss at 0.2 ug/ml after 24 hrs by […]. The class given is functional, cell-based.
The subject of data set [29] is A10. Briefly: Effect on morphology in rat A10 cells assessed as loss of cellular microfilament network at 2 ug/ml after 24 hrs by rhodamine-phalloidin staining. The class given is functional, cell-based.
The subject of data set [30] is Mus musculus. Kind of data set: Toxicity in mouse mammary 16/C cells xenografted C3H mouse assessed as body weight loss at nadir at 4.8 mg/kg, iv administered in d 1,2 schedule. It counts as organism-based. Also noted: dose 4.8 mg/kg, route intravenous. The following applies: in vivo.
Data set [31] concerns MC-38. Kind of data set: Antitumor activity against mouse Colon 38 cells xenografted BDF mouse at 13 mg/kg, iv administered in QD 3-11 schedule. The class given is functional.
The test system of data set [32] is Mus musculus. Kind of data set: Antitumor activity against mouse mammary 16/C cells xenografted C3H mouse at 4.8 mg/kg, iv administered in d 1,2 schedule. It counts as functional, organism-based. The arrangement: dose 4.8 mg/kg.
Data set [33] relates to Mus musculus. Kind of data set: Toxicity in mouse mammary 16/C cells xenografted C3H mouse assessed as mortality at 11.7 mg/kg, iv administered in QD 1-9 schedule. The class given is organism-based. Also noted: dose 11.7 mg/kg, route intravenous. Particulars: in vivo.
The subject of data set [34] is A10. Briefly: Inhibition of cytokinesis in rat A10 cells. It counts as functional, cell-based.
Data set [35] can be described thus: Antitumor activity against mouse mammary 16/C cells xenografted C3H mouse at 11.7 mg/kg, iv administered in QD 1-9 schedule. It counts as functional.
Data set [36] relates to Mus musculus. Briefly: Toxicity in mouse Colon 38 cells xenografted BDF mouse assessed as body weight loss at nadir at 13 mg/kg, iv administered in QD 3-11 schedule. The following applies: in vivo. It counts as organism-based, MC-38. The arrangement: dose 13 mg/kg, route intravenous.
Data set [37] relates to Mus musculus. Kind of data set: Toxicity in mouse mammary 16/C cells xenografted C3H mouse assessed as mortality at 4.8 mg/kg, iv administered in d 1,2 schedule. The class given is organism-based. Particulars: in vivo. The arrangement: dose 4.8 mg/kg, route intravenous.
Data set [38] relates to A10. Kind of data set: Effect on morphology in rat A10 cells assessed as microtubule loss at 2 ug/ml after 24 hrs by […]. The class given is functional, cell-based.
The test system of data set [39] is Mus musculus. Kind of data set: Toxicity in mouse Colon 38 cells xenografted BDF mouse assessed as mortality at 13 mg/kg, iv administered in QD 3-11 schedule. It counts as organism-based, MC-38. Also noted: dose 13 mg/kg, route intravenous. Particulars: in vivo.
Data set [40] deals with Mus musculus. Kind of data set: Toxicity in mouse mammary 16/C cells xenografted C3H mouse assessed as body weight loss at nadir at 11.7 mg/kg, iv administered in QD 1-9 schedule. The class given is organism-based. The arrangement: dose 11.7 mg/kg, route intravenous. The following applies: in vivo.
For data set [41], the system named is A10. Briefly: Effect on morphology in rat A10 cells assessed as formation of binuclear cells. The class given is functional, cell-based.
Data set [42] deals with A10. Briefly: Induction of apoptosis in rat A10 cells assessed as fragmented cell nuclei at 0.2 ug/ml. The class given is functional, cell-based.
The subject of data set [43] is MC-38. Briefly: Antitumor activity against mouse Colon 38 cells xenografted BDF mouse at 15 mg/kg, iv administered in d 3,4,7-10 schedule. It counts as functional, organism-based. The arrangement: dose 15 mg/kg.
In data set [44] the test system is Mus musculus. Kind of data set: Toxicity in mouse Colon 38 cells xenografted BDF mouse assessed as body weight loss at nadir at 15 mg/kg, iv administered in d 3,4,7-10 schedule. It counts as organism-based, MC-38. The arrangement: dose 15 mg/kg, route intravenous. The following applies: in vivo.

Converted amounts (≈) assume the structure as drawn. The source made the active and inactive calls. The calls are words filed in the database; no cut-off is given here. *1 amine or outer side, *2 acyl side, *3 side chain or, on linkers, in order; H or OH if unused. Where a SMILES comes first, the peptide text is derived from it. [ ]: non-standard residue; d: D form. X2 = CC[C@H](C)[C@H](OC(=O)[C@@H](C)[C@@H](CC)N[*:1])C(=O)[*:2]; X1 = C[C@H](N[*:1])C(=O)C(C)(C)C(=O)[*:2]; NMeY = CN[C@@H](Cc1ccc(O)cc1)C(=O)O; NMeF = CN[C@@H](Cc1ccccc1)C(=O)O; NMeI = CC[C@H](C)[C@H](NC)C(=O)O; NMeL = CN[C@@H](CC(C)C)C(=O)O; NMeV = CN[C@H](C(=O)O)C(C)C; NMeA = CN[C@@H](C)C(=O)O Bounds are passed on as bounds.

Turning to `CC[C@H](C)[C@@H]1OC(=O)[C@@H](C)[C@@H](CC)NC(=O)[C@H](C)N(C)C(=O)C(C)(C)C(=O)[C@H](C)NC(=O)[C@H](Cc2ccccc2)N(C)C(=O)[C@H](C(C)C)N(C)C(=O)CNC(=O)[C@H](CC(C)C)N(C)C(=O)CNC1=O` [DOLASTATIN 12] (cyclo(G[NMeL]G[NMeV][NMeF][X1][NMeA][X2])), the MIC in data set [1] is below 0.05 µg/mL; in data set [14], 0.08 µg/mL (≈ 0.0825 µM). The T/C in data set [2] is recorded as 86%; in data set [3], 41%; in data set [15] it was 92%; in [22] it was 68%. The Activity in [4] is listed as -3%; in data set [5] it was 500 Zone units; in data set [7], 420 Zone units; in data set [8] it was 480 Zone units; in data set [9] it was 630 Zone units; in [10], -13%. Besides, the Activity result is given as “Non-toxic” in data set [11]; -15% in data set [12]; 270 Zone units in [13]; “Toxic” in data set [17]; -8% in [19]; “Toxic” in data set [20]. Also, the result in data set [6], in data set [16] and in data set [18] was Active. In addition, the outcome in data set [21] was inactive.

As to `CC[C@H](C)[C@@H]1OC(=O)[C@@H](C)[C@@H](CC)NC(=O)[C@H](C)NC(=O)C(C)(C)C(=O)[C@H](C)NC(=O)[C@H](Cc2ccc(OC)cc2)N(C)C(=O)[C@H](C(C)C)N(C)C(=O)CNC(=O)[C@H]([C@@H](C)CC)N(C)C(=O)CNC1=O` [MAJUSCULAMIDE] (cyclo(A[X2]G[NMeI]G[NMeV][NMeY](Me)[X1])), the Activity is recorded as 730 Zone units in data set [23], 450 Zone units in data set [24], 500 Zone units in data set [25] and 710 Zone units in [26].

Turning to `CC[C@H](C)[C@@H]1OC(=O)[C@@H](C)[C@@H](CC)NC(=O)[C@H](C)N(C)C(=O)C(C)(C)C(=O)[C@H](C)NC(=O)[C@H](Cc2ccc(OC)cc2)N(C)C(=O)[C@H](C(C)C)N(C)C(=O)CNC(=O)[C@H](CC(C)C)N(C)C(=O)CNC1=O` [epilyngbyastatin 1] (cyclo(G[NMeL]G[NMeV][NMeY](Me)[X1][NMeA][X2])), the result in [27], in data set [29] and in data set [18] was Active. Also, the values for the MIC in data set [1] and in data set [14] were 0.1 µg/mL (≈ 0.1 µM) and 0.5 µg/mL (≈ 0.5 µM), respectively. In addition, the result in [28], in data set [34], in data set [38], in data set [41] and in [42] was inactive. The Activity result in data set [30] is “Toxic”; in [32] it was “Toxic”; in data set [33], “Non-toxic”; in data set [5], 570 Zone units; in [36], -3%; in data set [37], “Toxic”. Moreover, the Activity in data set [7] was 450 Zone units; in data set [8], 580 Zone units; in data set [9], 670 Zone units; in [13] it was 650 Zone units; in data set [39], “Non-toxic”; in [40] it was -4%. Besides, the Activity result in [17] was “Toxic”; in data set [43], “Toxic”; in [44], -8%. The figures for the T/C in data set [31] and in data set [35] were 93% and 61%, respectively.
